Bounds are passed on as bounds.

The first assay deals with T1, human P2X7 receptor (Homo sapiens, UniProt Q99572, R270H).
T1 construct: expressed in transfected cells
T1 sequence (Q99572 1-595 R270H): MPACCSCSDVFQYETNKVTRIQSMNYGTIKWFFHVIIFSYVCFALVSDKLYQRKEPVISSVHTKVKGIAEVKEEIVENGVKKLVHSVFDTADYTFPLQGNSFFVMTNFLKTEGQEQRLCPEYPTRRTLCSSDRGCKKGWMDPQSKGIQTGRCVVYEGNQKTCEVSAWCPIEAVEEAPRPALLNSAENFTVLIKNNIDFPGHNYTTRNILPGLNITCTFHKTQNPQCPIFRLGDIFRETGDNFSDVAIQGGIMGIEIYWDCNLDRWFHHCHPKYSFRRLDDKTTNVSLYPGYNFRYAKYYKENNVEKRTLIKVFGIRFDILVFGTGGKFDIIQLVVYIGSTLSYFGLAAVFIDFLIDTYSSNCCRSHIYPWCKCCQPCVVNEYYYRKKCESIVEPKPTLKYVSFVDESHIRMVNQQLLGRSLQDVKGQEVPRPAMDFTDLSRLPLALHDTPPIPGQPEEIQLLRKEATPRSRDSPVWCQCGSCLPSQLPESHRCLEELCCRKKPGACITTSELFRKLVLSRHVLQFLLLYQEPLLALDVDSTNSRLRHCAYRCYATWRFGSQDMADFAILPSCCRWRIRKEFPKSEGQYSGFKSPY
Kind of assay: Evaluation of a human P2X7 receptor inhibitory activity (Yo-Pro uptake, BzATP stimulation, FLIPR TETRA). The class given is cell-based. To be noted: antagonistic activity for the human P2X7 receptor, 1321N1 cell transfected with the human P2X7 receptor gene, Yo-Pro fluorescence. Put shortly:
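1321N1 cells stably expressing human P2X7 (NM_002562.5 with T606C and G952A SNPs), in HEPES-buffered HBSS pH 7.4-7.5; Yo-Pro uptake stimulated with BzATP, compound added 8 min later, fluorescence followed 20 min on FLIPR. Max–min signal normalised to vehicle (0%) and reference compound (100%); IC50 by logistic fit.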
With `O=c1cc(-c2cccc(C(F)(F)F)c2Cl)n(Cc2ccccc2)cn1` [III-001], the IC50 (usually the concentration at which inhibition is half-maximal) is 110 nM. In the case of `O=c1cnn(Cc2ccccc2)c(-c2cccc(C(F)(F)F)c2Cl)c1` [III-002], half-maximal inhibition (IC50) required 110 nM.

Staying with this assay, now noted: antagonistic activity for the human P2X7 receptor, 1321N1 cell transfected with the human P2X7 receptor gene, Yo-Pro fluorescence, class symbols.
For `N#CCn1cc(OCc2ccccc2)c(=O)nc1-c1cccc(C(F)(F)F)c1Cl` [II-085], the IC50 is < 50 nM. Take `COc1cccc(Cn2cc(OC)c(=O)nc2-c2cccc(C(F)(F)F)c2Cl)c1` [II-086]: the IC50 is < 50 nM.

As to `COc1ccccc1Cn1cc(OC)c(=O)nc1-c1cccc(C(F)(F)F)c1Cl` [II-087], the IC50 is < 50 nM. As for `COc1cn(Cc2ccccc2)c(-c2ccc(C(F)(F)F)cc2Cl)nc1=O` [II-088], the IC50 was 500 to 1000 nM. For `Cc1ccccc1Cn1cc(OCC(F)(F)F)c(=O)nc1-c1cccc(C(F)(F)F)c1Cl` [II-089], the IC50 is < 50 nM. Turning to `Cc1ccccc1Cn1cc(OCC#N)c(=O)nc1-c1cccc(C(F)(F)F)c1Cl` [II-090], the IC50 is < 50 nM. Still for that read-out and setting: under `Cc1ccccc1Cn1cc(C#N)c(=O)nc1-c1cccc(C(F)(F)F)c1Cl` [II-091] stands < 50 nM; under `COc1ccccc1Cn1cc(C#N)c(=O)nc1-c1cccc(C(F)(F)F)c1Cl` [II-092], < 50 nM; under `COc1ccccc1Cn1cc(F)c(=O)nc1-c1cccc(C(F)(F)F)c1Cl` [II-093], < 50 nM. With `COc1cn(Cc2cccnc2C(F)(F)F)c(-c2cccc(C(F)(F)F)c2Cl)nc1=O` [II-094], the IC50 lay within 100 to 500 nM. Consider `COc1cn(Cc2ccccc2Cl)c(-c2cccc(C(F)(F)F)c2Cl)nc1=O` [II-095], for which the IC50 was < 50 nM. Compound `COc1cn(Cc2ccc(Cl)cc2)c(-c2cccc(C(F)(F)F)c2Cl)nc1=O` [II-096] gave an IC50 of 100 to 500 nM. Turning to `COc1cn(Cc2ccccc2OC(F)(F)F)c(-c2cccc(C(F)(F)F)c2Cl)nc1=O` [II-097], the IC50 is < 50 nM. Consider `COc1cn(Cc2ccccc2SC(F)(F)F)c(-c2cccc(C(F)(F)F)c2Cl)nc1=O` [II-098], for which the half-maximal inhibitory concentration (IC50) was in the range of 100 to 500 nM. In the case of `COc1cn(Cc2ccccc2C(F)(F)F)c(-c2cccc(C(F)(F)F)c2Cl)nc1=O` [II-099], the IC50 is < 50 nM. The compound `COc1cn(Cc2cccc(Cl)c2)c(-c2cccc(C(F)(F)F)c2Cl)nc1=O` [II-100] had an IC50 of 50 to 100 nM. `COc1cn(Cc2ccccc2)c(-c2cc(Cl)ccc2Cl)nc1=O` [II-101] came in with an IC50 of 1000 to 10000 nM.

For the origin of these results see US9988373B2, “Nitrogen-containing six-membered cyclic derivatives and pharmaceutical composition comprising the same” (SHIONOGI & CO., LTD., priority 2013, dated 2018).
